Among the test systems are CAKI-1 renal; CCRF-CEM leukemia; COLO 205 colon; HCT-116 colon; KM12 colon; SR leukemia; TK-10 renal; UACC-257 melanoma; MCF7 breast; RXF 393 renal.
Assay in all cases: inhibition of tumour cell growth, NCI panel, 48 h

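Test compounds were applied to cells in 96-well plates for 48 hours at 5 doses. GI50 = concentration required for 50% inhibition of growth. TGI: total growth inhibition.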

For `CC(=O)[CH-]C(C)=O.CC(=O)[CH-]C(C)=O.[O-]c1ccccc1.[O-]c1ccccc1.[Ti+4]`, the GI50 in the assay with CAKI-1 renal, in the assay on CCRF-CEM leukemia, in the assay on COLO 205 colon, in the assay on HCT-116 colon, in the assay on KM12 colon and in the assay with SR leukemia was over 100 µM each time. Moreover, the GI50 with TK-10 renal and in the assay with UACC-257 melanoma was over 100 µM in each case. In addition, the TGI in the assay with CAKI-1 renal, with CCRF-CEM leukemia, in the assay on COLO 205 colon, in the assay on HCT-116 colon, in the assay with KM12 colon and in the assay on SR leukemia was over 100 µM in each case. For the same compound, the TGI with TK-10 renal and with UACC-257 melanoma was over 100 µM throughout.

Regarding `CC(C)(C)C#COC(=O)c1ccccc1`, the TGI in the assay with CAKI-1 renal, in the assay on CCRF-CEM leukemia, with COLO 205 colon, in the assay on HCT-116 colon, in the assay with KM12 colon and with SR leukemia was over 100 µM throughout. In the assay with UACC-257 melanoma, this compound registered a TGI of over 100 µM.

Regarding `NC(N)=N/N=C\c1ccc(OCc2ccccc2)cc1`, the GI50 in the assay on CAKI-1 renal is 3.13 µM; in the assay on CCRF-CEM leukemia, 2.73 µM; in the assay with COLO 205 colon, 1.74 µM; in the assay on HCT-116 colon, 1.51 µM; in the assay with KM12 colon, 1.63 µM; in the assay on MCF7 breast, 1.37 µM. Moreover, the GI50 in the assay on RXF 393 renal was 1.79 µM; with UACC-257 melanoma it was 1.61 µM. The TGI with CAKI-1 renal is 13.4 µM; with CCRF-CEM leukemia, 10 µM; in the assay with COLO 205 colon, 3.44 µM; in the assay on HCT-116 colon, 3.14 µM; in the assay on KM12 colon, 3.1 µM; in the assay on MCF7 breast, 2.91 µM. The TGI with RXF 393 renal was determined as 4.26 µM; with UACC-257 melanoma, 3.31 µM.

Turning to `NCCO/C=C/C(N)C(=O)O` (stereo unspecified), the TGI with CAKI-1 renal, in the assay on CCRF-CEM leukemia, in the assay with COLO 205 colon, in the assay with HCT-116 colon, in the assay on KM12 colon and in the assay on MCF7 breast was over 100 µM each time. Further, the TGI in the assay with RXF 393 renal, in the assay on TK-10 renal and in the assay with UACC-257 melanoma was over 100 µM throughout.

As to `O=C(Nc1ccc(Cl)cc1C(F)(F)F)C(=O)Nn1c(=S)[nH]c2ccccc2c1=O`, the TGI in the assay on CAKI-1 renal, in the assay with CCRF-CEM leukemia, with HCT-116 colon, in the assay on KM12 colon, in the assay with MCF7 breast and in the assay on RXF 393 renal was over 100 µM throughout. Also, the TGI with TK-10 renal and with UACC-257 melanoma was over 100 µM in each case.

Take `COc1ccc2c(c1)C(=O)c1c-2c(OCCCN(C)C)nc2cc(Br)ccc12`: the GI50 was 11 µM with CAKI-1 renal; 5.2 µM with CCRF-CEM leukemia; 13.8 µM with COLO 205 colon; 5.16 µM in the assay with HCT-116 colon; 11.4 µM in the assay with KM12 colon; 2.32 µM in the assay with MCF7 breast. Moreover, the GI50 in the assay with RXF 393 renal was 1.7 µM; with TK-10 renal it was 4.17 µM; in the assay on UACC-257 melanoma, 16.4 µM. In addition, the TGI was 23.5 µM with CAKI-1 renal; 23.8 µM with CCRF-CEM leukemia; over 100 µM with COLO 205 colon; 18.5 µM with HCT-116 colon; 24.3 µM with KM12 colon; 13.7 µM in the assay on MCF7 breast. The TGI with RXF 393 renal came out at 3.4 µM; in the assay with TK-10 renal, 13.8 µM; with UACC-257 melanoma, 32.9 µM.

In the case of `COc1c2ccoc2nc2c(OC)c(OCC(O)C(C)(C)O)ccc12` (stereo unspecified), the TGI in the assay with CAKI-1 renal, with CCRF-CEM leukemia, with COLO 205 colon, with HCT-116 colon, in the assay on KM12 colon and in the assay with MCF7 breast was over 100 µM throughout. Moreover, the TGI with TK-10 renal and in the assay with UACC-257 melanoma was over 100 µM each time.

As for `COc1cc(C)c2c(c1)CN1CN2Cc2cc(OC)cc(C)c21`, the TGI in the assay with CAKI-1 renal, in the assay with CCRF-CEM leukemia, in the assay on COLO 205 colon, in the assay with HCT-116 colon, in the assay with KM12 colon and in the assay with SR leukemia was over 100 µM throughout.

In the case of `Cc1cccc(C)c1NC(=O)C(=O)Cc1nc2ccccc2s1`, the TGI in the assay on CAKI-1 renal, in the assay with CCRF-CEM leukemia, in the assay with COLO 205 colon, with HCT-116 colon, in the assay on KM12 colon and in the assay with RXF 393 renal was over 100 µM in each case. Also, the TGI in the assay on TK-10 renal and in the assay on UACC-257 melanoma was over 100 µM each time.

Turning to `Cn1c(COC(=O)NCCc2ccccn2)nc2c(N3CCOCC3)nc(Cl)nc21`, the GI50 in the assay with CAKI-1 renal is 0.974 µM; in the assay with CCRF-CEM leukemia it was 0.62 µM; in the assay on COLO 205 colon, 1.72 µM; in the assay with HCT-116 colon, 0.847 µM; with KM12 colon, 1.8 µM; with MCF7 breast, 0.946 µM. Besides, the results for the GI50 in the assay on RXF 393 renal, with TK-10 renal and in the assay with UACC-257 melanoma were 1.06 µM, 1.72 µM and 1.53 µM, respectively. In addition, the TGI turned out to be 2.16 µM with CAKI-1 renal; 12.6 µM with CCRF-CEM leukemia; 3.61 µM with COLO 205 colon; 2.25 µM in the assay with HCT-116 colon; 4.75 µM in the assay with KM12 colon; 2.95 µM in the assay with MCF7 breast. The results for the TGI with RXF 393 renal, in the assay on TK-10 renal and in the assay with UACC-257 melanoma were 2.45 µM, 3.34 µM and 3.28 µM, respectively.

For `Cc1cc(Cl)ccc1NC(=O)CCCC(=O)C1C/C(=N/O)CC/C1=N\O` (stereo unspecified), the TGI in the assay on CAKI-1 renal, in the assay on CCRF-CEM leukemia, in the assay with COLO 205 colon, in the assay with HCT-116 colon, in the assay with KM12 colon and in the assay on TK-10 renal was over 100 µM throughout. This compound also returned a TGI in the assay with UACC-257 melanoma of over 100 µM.

On to `CC1=NN(c2cccc(Cl)c2)C(=O)/C1=C\c1cn(CC(O)CN2CCCCC2)c2ccccc12` (stereo unspecified), for which the GI50 in the assay with CAKI-1 renal is 1.83 µM; in the assay with CCRF-CEM leukemia it was 3.38 µM; with COLO 205 colon it was 1.73 µM; with HCT-116 colon it was 1.74 µM; with KM12 colon it was 2.92 µM; in the assay on MCF7 breast, 6.47 µM. Moreover, the GI50 in the assay on RXF 393 renal is 4.97 µM; in the assay with TK-10 renal it was 7.51 µM; in the assay on UACC-257 melanoma it was 2.35 µM. Besides, the TGI in the assay with CAKI-1 renal was 5.33 µM; in the assay on CCRF-CEM leukemia, over 100 µM; with COLO 205 colon, 3.26 µM; with HCT-116 colon it was 3.35 µM; with KM12 colon, 8.26 µM; in the assay on MCF7 breast, 21.5 µM. Besides, the TGI in the assay on RXF 393 renal turned out to be 17.5 µM; in the assay with TK-10 renal it was 21.3 µM; in the assay with UACC-257 melanoma, 4.62 µM.

As for `CN1CCCC2[C@@H]3CCC4c5nonc5CC[C@]4(C)C3CC[C@@]21C` (stereo partly specified), the TGI in the assay on CAKI-1 renal, in the assay on COLO 205 colon, in the assay on HCT-116 colon, in the assay on KM12 colon, with RXF 393 renal and with SR leukemia was over 100 µM each time. Moreover, the TGI in the assay with TK-10 renal and with UACC-257 melanoma was over 100 µM each time.

As to `Clc1ccccc1C(Nc1cnccn1)Nc1cnccn1`, the TGI with CAKI-1 renal, with CCRF-CEM leukemia, in the assay with COLO 205 colon, with HCT-116 colon, in the assay on KM12 colon and with MCF7 breast was over 100 µM each time. The TGI in the assay with RXF 393 renal, with TK-10 renal and in the assay with UACC-257 melanoma was over 100 µM each time.

`CCN(CC)C(=S)SSC(C)C`: the GI50 with CAKI-1 renal is 5.99 µM; with CCRF-CEM leukemia it was 4.26 µM; with COLO 205 colon, 0.0412 µM; in the assay on RXF 393 renal, 16.5 µM; with TK-10 renal it was 20.3 µM; in the assay on UACC-257 melanoma it was 21.7 µM. Moreover, the TGI in the assay on CAKI-1 renal came out at 19.2 µM; in the assay on CCRF-CEM leukemia, 30.8 µM; in the assay with COLO 205 colon, 20.6 µM; in the assay with RXF 393 renal it was 31.5 µM; with TK-10 renal it was 38 µM; in the assay on UACC-257 melanoma it was 95.8 µM.

In the case of `Cc1cc2c(c(C(=O)O)c1C)-c1cccc(Cl)c1C2=O`, the TGI in the assay with CAKI-1 renal, in the assay on CCRF-CEM leukemia, in the assay on COLO 205 colon, with KM12 colon, with RXF 393 renal and in the assay with TK-10 renal was over 100 µM in each case. This compound had a TGI in the assay on UACC-257 melanoma of over 100 µM.

For `CCC[CH2][Sn-]([CH2]CCC)([CH2]CCC)[O]C(=O)C(C)C`, the GI50 in the assay with CAKI-1 renal was 0.122 µM; in the assay on COLO 205 colon, 0.13 µM; in the assay with HCT-116 colon, 0.0553 µM; in the assay on KM12 colon, 0.0347 µM; with RXF 393 renal, 0.107 µM; in the assay on TK-10 renal, 0.141 µM. Moreover, the GI50 in the assay on UACC-257 melanoma was 0.135 µM. The TGI was 0.279 µM with CAKI-1 renal; 0.274 µM in the assay with COLO 205 colon; 0.182 µM in the assay with HCT-116 colon; 0.145 µM in the assay with KM12 colon; 0.237 µM in the assay on RXF 393 renal; 0.272 µM in the assay with TK-10 renal. For the same compound, the TGI in the assay with UACC-257 melanoma was 0.265 µM.

As for `COc1cc2c(/C=C3\C(=O)Nc4ccccc43)c[nH]c2cc1C`, the GI50 is 0.409 µM in the assay with CAKI-1 renal; 0.0196 µM with CCRF-CEM leukemia; 0.118 µM in the assay on COLO 205 colon; under 0.01 µM with HCT-116 colon; 0.239 µM in the assay on KM12 colon; under 0.0231 µM in the assay with RXF 393 renal. For the same compound, the results for the GI50 in the assay on TK-10 renal and in the assay with UACC-257 melanoma were 1.31 µM and under 0.01 µM, respectively. Moreover, the TGI with CAKI-1 renal is 13.3 µM; in the assay on CCRF-CEM leukemia, 0.0734 µM; in the assay on COLO 205 colon, 4.39 µM; in the assay on HCT-116 colon, 1.22 µM; in the assay with KM12 colon it was 0.824 µM; in the assay on MCF7 breast, over 82.1 µM. The TGI with RXF 393 renal was 0.71 µM; in the assay on TK-10 renal, 9.95 µM; in the assay on UACC-257 melanoma it was 26 µM.

Values taken from PubChem BioAssay (NCI).
